Values of other authors in PMC5063953 (Biochemical Pharmacology, 2016).

Test system: hGIPR
Settings: R5.40A; ref [71]; cited from earlier work

Substance: glucose-dependent insulinotropic peptide (YAEGTFISDYSIAMDKIHQQDFVNWLLAQKGKKNDWKHNITQ; Gastric inhibitory polypeptide; UniProt P09681 52-93, looked up) [GIP]
- Effect compared with WT: cAMP production: Reduced GIP mediated cAMP production.
